Source: US20050119197A1, “Naadp analogues for modulating t-cell activity” (priority 2000, published 2005)

Legend:
Format in all cases: cell-based, human
[1] = test system: NAADP^+-mediated Ca^2+-signaling; assay: Co-injection of antagonists with NAADP^+: influence on NAADP^+-mediated Ca^2+-signaling in Jurkat T-lymphocytes
Description: (§1) Jurkat T-lymphocytes were loaded with Fura2/AM and ratiometric Ca^2+ imaging and parallel microinjection in the presence of 1 mM extracellular Ca^2+ was carried out as detailed under ‘Experimental Procedures’. […] Shown are (n=number of experiments): A/F, coinjection of NAADP (50 nM) and 8-OCH3-cADPR (100 μM) (n=7); B/G, injection of NAADP^+ (50 nM, n=10); C/H, coinjection of NAADP^+ (10 μM) and cADPR (10 μM) (n=7); D/I, coinjection of NAADP^+ (50 nM) and cADPR (10 μM) (n=5); E/J, injection of cADPR (10 μM, n=5).
(§2) Jurkat T-lymphocytes were loaded with Fura2/AM and ratiometric Ca^2+ imaging and parallel microinjection in the presence of 1 mM extracellular Ca^2+ was carried out as detailed under ‘Experimental Procedures’. […] Shown are: A/F, coinjection of NAADP^+ (50 nM) and […] (40 μM) (n=7); B/G, injection of NAADP^+ (50 nM) (n=10); C/H, coinjection of NAADP^+ (10 μM) and Ins(1,4,5)P3 (4 μM) (n=9); D/I, coinjection of NAADP^+ (50 nM) and Ins(1,4,5)P3 (4 μM) (n=3); E/J injection of Ins(1,4,5)P3 (4 μM; n=8)
Batches of 10^7 Jurkat T cells were loaded with Fura2/AM as described (Guse et al., 1993). Fura2-loaded cells (10^7 cells/5 ml) were kept at room temperature until use. Glass coverslips were coated first with bovine serum albumin (5 mg/ml), and then with poly-L-lysine (0.1 mg/ml). Small chambers consisting of a rubber O-ring were sealed on the coverslips by silicon grease. Then 90 μl of extracellular buffer (140 mM NaCl, 5 mM KCl, 1 mM MgSO4, 1 mM CaCl2, 20 mM Hepes, 1 mM NaH2PO4, 5.5 mM glucose, pH 7.4) was added, followed by addition of 10 μl cell suspension. The coverslip was mounted on the stage of an inverted microscope (Axiovert 100, Zeiss, Oberkochingen, Germany). Ratiometric Ca^2+-imaging was performed using a PhotoMed/Photon Technology (Wedel, Germany) digital imaging system built around the Axiovert 100 microscope. Illumination at 340 and 380 nm was carried out using a chopper/optical filter system. […] Ratio images (340/380) were constructed pixel by pixel, and changes in the ratio over time were measured by applying “regions-of-interest” on individual cells. […]

Jurkat T cells [2] = assay: Ca^2+ signals in single intact Jurkat T-lymphocytes microinjected with compound (ratiometric Fura2 Ca^2+ imaging); conditions: for Ca^2+ signal after microinjection: 1 mM extracellular Ca^2+
Description: Jurkat T-lymphocytes were loaded with Fura2/AM and Ca^2+ was measured as detailed under ‘Experimental Procedures’. Cells were injected as described in Experimental Procedures’ in the presence of 1 mM extacellular Ca^2+. Data are presented as overlays of single tracings of individual cells (left panel). […] As a control vehicle buffer without NAADP^+ was injected (A,B). The time point of microinjection is indicated by arrows.
Data from FIG. 1 are shown as mean values (n=5 to 17) from time point 80 sec (Ca^2+ peak; A) or 400 sec (Ca^2+ plateau; B).
Jurkat T-lymphocytes were loaded with Fura2/AM and ratiometric Ca^2+ imaging and parallel microinjection in the presence of 1 mM extracellular Ca^2+ was carried out as detailed under ‘Experimental Procedures’. Cells were injected with 50 nM NAADP^+ (A) or NADP^+ (B). Shown are the averages from 13 (A) and 5 (B) cells. The time point of microinjection is indicated by arrows.
Jurkat T lymphocytes (subclone JMP) were cultured in RPMI 1640 medium containing the following additions: Glutamax I, HEPES (20 mM, pH 7.4), NCS (7.5%), penicillin (100 U/ml) and streptomycin (50 μg/ml; all obtained from Life Technologies, Eggenstein, Germany). The cells were cultured at 37° C. in a humidified atmosphere in the presence of 5% CO2.
Batches of 10^7 Jurkat T cells were loaded with Fura2/AM as described (Guse et al., 1993). Fura2-loaded cells (10^7 cells/5 ml) were kept at room temperature until use. Glass coverslips were coated first with bovine serum albumin (5 mg/ml), and then with poly-L-lysine (0.1 mg/ml). Small chambers consisting of a rubber O-ring were sealed on the coverslips by silicon grease. Then 90 μl of extracellular buffer (140 mM NaCl, 5 mM KCl, 1 mM MgSO4, 1 mM CaCl2, 20 mM Hepes, 1 mM NaH2PO4, 5.5 mM glucose, pH 7.4) was added, followed by addition of 10 μl cell suspension. The coverslip was mounted on the stage of an inverted microscope (Axiovert 100, Zeiss, Oberkochingen, Germany). Ratiometric Ca^2+-imaging was performed using a PhotoMed/Photon Technology (Wedel, Germany) digital imaging system built around the Axiovert 100 microscope. Illumination at 340 and 380 nm was carried out using a chopper/optical filter system. Images were captured by an intensified CCD camera (type C2400-77; spatial resolution: 525×487 pixel; Hamamatsu, Garching, Germany) and stored as individual 340 and 380 images on harddisk. Sampling rate was usually 5 sec for a pair of images (340 and 380 nm) using 100-fold magnification. Data analysis was performed off-line using PhotoMed/Photon Technology (Wedel, Germany) “Image master” analysis software. Ratio images (340/380) were constructed pixel by pixel, and changes in the ratio over time were measured by applying “regions-of-interest” on individual cells. Finally, ratio values were converted to Ca^2+-concentrations by external calibration.
Parallel Ca^2+ imaging and microin ection experiments require a firm attachment of the Jurkat T cells without preactivation of intracellular Ca^2+-signaling. This was achieved by the above mentioned coating procedure of the glass coverslips, as detailed earlier (Guse et al., 1997). The cells were kept in a small chamber (100 μl volume) in extracellular buffer (140 mM NaCl, 5 mM KCl, 1 mM MgSO4, 1 mM CaCl2, 20 mM Hepes, 1 mM NaH2PO4, 5.5 mM glucose, pH 7.4). Compounds to be microinjected were cleared from particles by either filtration through 0.45 μm filters, by centrifugation in an Eppendorf centrifuge at maximal speed for 10 min, or by both. Femtotips II (Eppendorf-Netheler-Hintz, Hamburg, Germany) were filled with 5 μl of reagent solution and inserted into the semi-automatic Eppendorf microinjection system (Transjector 5246, Micromanipulator 5171, Eppendorf-Netheler-Hintz, Hamburg, Germany). Injection parameters were: injection pressure: 80 hPa, compensatory pressure: 40 hPa, duration of injection: 0.5 sec, velocity of pipette: 700 μm/sec, pipette angle: 45°. Injections were performed into the upper part of the cell.

Jurkat T cells [3] = assay: as above; conditions: 50 nM microinjected; nominal Ca^2+-free buffer; data not shown
[4] = test system: OKT3-mediated Ca^2+-signaling (TCR/CD3 complex); assay: Effect of microinjected NAADP^+ on OKT3-induced Ca^2+ signaling in single Jurkat T-lymphocytes
Description: Jurkat T-lymphocytes were loaded with Fura2/AM and ratiometric Ca^2+ imaging and parallel microinjection in the presence of 1 mM extracellular Ca^2+ was carried out as detailed under ‘Experimental Procedures’. The cells were injected with different concentrations of NAADP^+ and then OKT3(10 μg/ml) was added. Injection of intracellular buffer (A), NAADP^+ (50 nM [B] and 10 μM [C]), and addition of OKT3 is indicated by arrows. Data are presented as a typical tracing from one individual cell, for each condition at least 3 experiments were carried out.
(§3) Batches of 10^7 Jurkat T cells were loaded with Fura2/AM as described (Guse et al., 1993). Fura2-loaded cells (10^7 cells/5 ml) were kept at room temperature until use. Glass coverslips were coated first with bovine serum albumin (5 mg/ml), and then with poly-L-lysine (0.1 mg/ml). Small chambers consisting of a rubber O-ring were sealed on the coverslips by silicon grease. Then 90 μl of extracellular buffer (140 mM NaCl, 5 mM KCl, 1 mM MgSO4, 1 mM CaCl2, 20 mM Hepes, 1 mM NaH2PO4, 5.5 mM glucose, pH 7.4) was added, followed by addition of 10 μl cell suspension. The coverslip was mounted on the stage of an inverted microscope (Axiovert 100, Zeiss, Oberkochingen, Germany). […] Ratio images (340/380) were constructed pixel by pixel, and changes in the ratio over time were measured by applying “regions-of-interest” on individual cells. […]

[5] = test system: Ins(1,4,5)P3-mediated Ca^2+-release; assay: Co-injection of NAADP^+ with Ins(1,4,5)P3 in Jurkat T-lymphocytes
Description: as §2, §3

[6] = test system: cADPR-mediated Ca^2+-signal; assay: Co-injection of NAADP^+ with cADPR in Jurkat T-lymphocytes
Description: as §1, §3

[7] = Ins(1,4,6)PS3 40 μM co-injected with NAADP^+ 50 nM, vs NAADP^+ alone

## OC1C(O)C(OP(O)(O)=S)C(OP(O)(O)=S)C(O)C1OP(O)(O)=S (stereo not drawn) [Ins(1,4,6)PS3]
[1]; [7]
  decay of the initial Ca^2+ peak of NAADP^+-mediated signal: faster decay
  effect on initial Ca^2+ peak of NAADP^+-mediated signal: partial reduction

## COc1nc2c(=N)n3cnc2n1C1OC(COP(=O)(O)OP(=O)(O)OCC2OC3C(O)C2O)C(O)C1O (stereo not drawn) [8-OCH3-cADPR]
[1]; 8-OCH3-cADPR 100 μM co-injected with NAADP^+ 50 nM
  effect on NAADP^+-mediated Ca^2+-signaling: did not significantly affect

## nicotinamide-adenine dinucleotide phosphate [NADP^+]
Jurkat T cells [2]; pipette concentration 50 nM
  Ca^2+ signal after microinjection: completely without effect

## Nc1ncnc2c1ncn2[C@@H]1O[C@H](COP(=O)(O)OP(=O)(O)OCC2OC([n+]3cccc(C(=O)[O-])c3)C(O)C2O)[C@@H](O)[C@H]1OP(=O)(O)O (stereo in doubt) [NAADP^+, nicotinic acid adenine dinucleotide phosphate]
Jurkat T cells [3]
  high initial Ca^2+-spike in nominal Ca^2+-free extracellular buffer: massively reduced
[4]; NAADP^+ 50 nM microinjected prior to OKT3 10 μg/ml
  effect on OKT3-mediated Ca^2+-signal: did not significantly change
[4]; NAADP^+ 10 μM (desensitizing) microinjected before OKT3 10 μg/ml
  effect on OKT3-mediated Ca^2+-signaling: dramatic inhibition
[5]; NAADP^+ 50 nM co-injected with Ins(1,4,5)P3 4 μM
  Ca^2+ signal on co-injection with Ins(1,4,5)P3: high initial Ca^2+ peak
[5]; NAADP^+ 10 μM (desensitizing) co-injected with Ins(1,4,5)P3 4 μM
  effect on Ins(1,4,5)P3-mediated Ca^2+-release: almost complete inhibition
Jurkat T cells [2]; 100 nM, Ca^2+ plateau, FIG. 2B
  longlasting Ca^2+-signal as measured at 400 s: only minor changes
Jurkat T cells [2]; Ca^2+ peak at 80 sec, FIG. 2A
  optimal concentration for the initial Ca^2+-peak (bell shaped dose response curve): 100 nM
Jurkat T cells [2]; pipette concentration 0.1 nM
  Ca^2+ signal after microinjection: without effect in most of the cells
Jurkat T cells [2]; pipette concentration 1 nM
  Ca^2+ signal after microinjection: without effect in most of the cells
Jurkat T cells [2]; pipette concentration 10 nM
  Ca^2+ signal after microinjection: stimulated repetitive, longlasting Ca^2+ spiking of low amplitude
Jurkat T cells [2]; pipette concentration 10 nM, listed as NAADP+
  Ca^2+ signal after microinjection: evokes repetitive and longlasting Ca^2+ oscillations of low amplitude
Jurkat T cells [2]; pipette concentration 50 nM
  Ca^2+ signal after microinjection: an initial, rapidly occurring Ca^2+-peak with a high amplitude
Jurkat T cells [2]; pipette concentration 50 nM, listed as NAADP+
  Ca^2+ signal after microinjection: a rapid and high initial Ca^2+ peak followed by trains of smaller Ca^2+ oscillations
Jurkat T cells [2]; pipette concentration 100 nM
  Ca^2+ signal after microinjection: a rapid and high initial Ca^2+ peak followed by trains of smaller Ca^2+ oscillations
Jurkat T cells [2]; pipette concentration 1 μM
  Ca^2+ signal after microinjection: gradually reduce the initial Ca^2+ peak
Jurkat T cells [2]; pipette concentration 10 μM
  Ca^2+ signal after microinjection: gradually reduce the initial Ca^2+ peak
Jurkat T cells [2]; pipette concentration 100 μM
  Ca^2+ signal after microinjection: no signal was detectable
Jurkat T cells [2]; pipette concentration 100 μM, listed as NAADP+
  Ca^2+ signal after microinjection: complete self-inactivation of Ca^2+-signals
[6]; NAADP^+ 50 nM co-injected with cADPR 10 μM
  effect on cADPR-mediated Ca^2+ signals: did not significantly change
[6]; NAADP^+ 10 μM (self-desensitizing) co-injected with cADPR 10 μM
  effect on cADPR-mediated Ca^2+-signal: massive decrease
